The text below walks through data of patent US8618154B2, “LXR modulators” (Bristol-Myers Squibb Company, priority 2009, dated 2013).

The subject of data set [1] is ABCA1 gene expression. The experiment in a line: Human whole blood assay (hWBA), ABCA1 mRNA induction. Format: cell-based. The following applies: for Emax: read-out: hWBA hABCA1 L30 Max P (%). Here is the method: Human whole blood was collected in EDTA containing tubes and 0.5 mL aliquots were immediately mixed in a 96 well block with the appropriate serial dilution of test compound, in 0.5% DMSO. Compounds were incubated with blood at 37° C. with constant rocking for 4 hours. After incubation, cells were lysed in ABI Nucleic Acid Purification Lysis Solution (Applied Biosystems catalog #4305895) and frozen at −80° C. Following cell lysis, total RNA was purified using an ABI 6100 RNA prep station according to the protocol provided by the manufacturer. cDNAs were synthesized, and mRNAs were quantitated using SYBR-Green Quantitative PCR (Q-PCR) on an ABI Prism 7900HT Sequence Detection System and reagents from Quanta Bioscience Inc (Quanta Bioscience catalog #95047 and 95055).
The quantity of each mRNA was determined by the ΔΔCT method (Michael W. Pfaffl. A new mathematical model for relative quantification in real-time RT-PCR. Nucleic Acids Research, 2001, Vol. 29, No. 9 e45) and normalized to the quantity of two control mRNAs, i.e. ribosomal protein L-30 (L-30) and beta-2-microglobulin (B2M). The induction of ABCA1 and ABCG1 by test compound was graphed as a percent of the reference compound, 2-(4-(5-(5-cyano-1-(2,4-difluorobenzyl)-6-oxo-4-(trifluoromethyl)-1,6-dihydropyridin-2-yl)thiophen-2-yl)-3-methylphenyl)acetic acid, and potency (EC50) and activity (% MAX) were calculated by fitting a sigmoidal response curve as a function of log transformed compound concentration using XLFit software according to the equation y=A+((B−A)/(1+((C/x)^D))).

Data set [2] in a line: High throughput metabolic stability in human microsomes. The data set is classed as in vitro ADME. The settings on record: parent compound remaining at 10 minutes, human liver microsomes. Here is the method:
The metabolic stability assay evaluates CYP-mediated metabolic stability in vitro using Human liver microsomes after a ten-minute incubation.
Test compound is received as a 3.5 mM stock solution in 100 percent DMSO. Compound is diluted to create a 50 μM acetonitrile (ACN) solution containing 1.4% DMSO, which is then used as a 100× stock for incubation with human liver microsomes. Each compound is tested in duplicate. Compound, NADPH and liver microsome solutions are combined for incubation in three steps: • 1) 152 μl of liver microsome suspension, protein concentration of 1.1 mg/ml in 100 mM NaPi, pH 7.4, 5 mM MgCl2 buffer, is pre-warmed at 37° C. • 2) 1.7 μl of 50 μM compound (98.6% ACN, 1.4% DMSO) is added to the same tube and pre-incubated at 37° C. for 5 minutes. • 3) The reaction is initiated by the addition of 17 μl of pre-warmed 10 mM NADPH solution in 100 mM NaPi, pH 7.4.
Reaction components are mixed well, and 75 μl are immediately transferred into 150 μl quench/stop solution (zero-time point, T0). Reactions are incubated at 37° C. for 10 minutes and then an additional 75 μl aliquot is transferred into 150 μl quench solution. Acetonitrile containing 100 μM DMN (a UV standard for injection quality control), is used as the quench solution to terminate metabolic reactions.
Quenched mixtures are centrifuged at 1500 rpm (˜500× g) in an Allegra X-12 centrifuge, SX4750 rotor (Beckman Coulter Inc., Fullerton, Calif.) for fifteen minutes to pellet denatured microsomes. A volume of 90 μl of supernatant extract, containing the mixture of parent compound and its metabolites, is then transferred to a separate 96-well plate for UV-LC/MS-MS analysis to determine the per cent of parent compound that is remaining in the mixture.
The mass spectrometric conditions obtained from automated infusion are used to analyze incubation samples from the Metabolic Stability assay. The injection volume is 5 μl and the flow rate is 0.8 ml/min. The gradient used is show in the table below. All samples are injected with the gradient using mobile phase A and B first. If necessary (for instance, for chromatographic reasons), samples are re-injected with the same gradient, but using mobile phase C and D. All LC-MS/MS analysis parameters are captured electronically in the raw data files.
Peak integration is performed with the Xcalibur™ software. The percent remaining calculation is performed by comparing the LC-MS/MS peak areas from the T10minute samples to those from the T0minute samples for each compound.

Setting [3] is: Homo sapiens, 4 h, percent of reference pan agonist (maximal activity defined as 100%).
Setting [4] is: human whole blood, 4 hours, ABCA1 mRNA normalized to L30, read-out: hWBA hABCA1 L30 EC50.

Structures are written as SMILES. Where two headings read alike, the source gives them in different places.

For the compound `CC(C)(O)c1cn(-c2ccc(-c3cc(F)c(CO)c(S(C)(=O)=O)c3)cc2)c(C(C)(C)c2ccccc2F)n1` [Example 1, 2-(1-(3′-fluoro-4′-(hydroxymethyl)-5′-(methylsulfonyl)biphenyl-4-yl)-2-(2-(2-fluorophenyl)propan-2-yl)-1H-imidazol-4-yl)propan-2-ol], the Emax in data set [1] (setting [3]) was determined as 28%. For the same compound, in data set [1] (setting [4]), the EC50 is below 100 nM. Besides, in data set [2], the “Human Microsome % Remaining” value is reported as above 80%.
`CC(C)(O)c1cn(-c2ccc(-c3cc(F)c(CO)c(S(C)(=O)=O)c3)cc2F)c(Cc2ccc(F)cc2Cl)n1` [Example 14, 2-(2-(2-chloro-4-fluorobenzyl)-1-(3,3′-difluoro-4′-(hydroxymethyl)-5′-(methylsulfonyl)biphenyl-4-yl)-1H-imidazol-4-yl)propan-2-ol]: in data set [1] (setting [3]), the Emax is 24%. Also, in data set [1] (setting [4]), the EC50 was below 100 nM. In addition, in data set [2], the “Human Microsome % Remaining” value was above 80%.
With `CC(C)(O)c1cn(-c2ccc(-c3cc(F)c(CO)c(S(C)(=O)=O)c3)cc2F)c(C(C)(C)c2ccccc2Cl)n1` [Example 6, 2-(2-(2-(2-Chloro-phenyl)propan-2-yl)-1-(3,3′-difluoro-4′-hydroxymethyl-5′-(methylsulfonyl)biphenyl-4-yl)-1H-imidazol-4-yl)-propan-2-ol], the Emax in data set [1] (setting [3]) came out at 35%. Moreover, in data set [1] (setting [4]), the EC50 was below 100 nM. Also, the “Human Microsome % Remaining” value in data set [2] is given as above 80%.
`CC(C)(O)c1cn(-c2ccc(-c3cc(F)c(CO)c(S(C)(=O)=O)c3)cc2F)c(Cc2ccc(Cl)cc2Cl)n1` [Example 11, 2-(2-(2,4-dichlorobenzyl)-1-(3,3′-difluoro-4′-(hydroxymethyl)-5′-(methylsulfonyl)biphenyl-4-yl)-1H-imidazol-4-yl)propan-2-ol]: the Emax in data set [1] (setting [3]) amounted to 16%. Further, in data set [1] (setting [4]), the EC50 is below 100 nM. Further, the “Human Microsome % Remaining” value in data set [2] is given as above 80%.
`CC(c1c(Cl)cccc1Cl)c1nc(C(C)(C)O)cn1-c1ccc(-c2cc(F)c(CO)c(S(C)(=O)=O)c2)cc1F` (stereo not drawn) [Example 21, 2-{2-[1-(2,6-dichlorophenyl)ethyl]-1-[3,3′-difluoro-4′-(hydroxymethyl)-5′-(methylsulfonyl)biphenyl-4-yl]-1H-imidazol-4-yl}propan-2-ol]: in data set [1] (Homo sapiens, 4 h, read-out: hWBA hABCA1 L30 EC50 (nM)), the EC50 is below 100 nM. In addition, the Emax in data set [1] (Homo sapiens, 4 h) came to 17%. Also, the “Human Microsome % Remaining” value in data set [2] is above 80%.
`CC(C)(O)c1cn(-c2ccc(-c3cccc(S(C)(=O)=O)c3)cc2)c(C(C)(C)c2ccccc2Cl)n1` [Compound No. 19, Table 1, WO 2007/002563, reference compound]: the Emax in data set [1] (setting [3]) stood at 55%. For the same compound, the EC50 in data set [1] (setting [4]) is above 1000 nM. For the same compound, the “Human Microsome % Remaining” value in data set [2] was above 80%.
`CC(C)(O)c1cn(-c2ccc(-c3cc(F)c(CO)c(S(C)(=O)=O)c3)cc2F)c(Cc2ccccc2Cl)n1` [Example 20, 2-[2-(2-Chloro-benzyl)-1-(3,3′-difluoro-4′-hydroxymethyl-5′-methanesulfonyl-biphenyl-4-yl)-1H-imidazol-4-yl]-propan-2-ol]: the Emax in data set [1] (setting [3]) stood at 35%. Further, the EC50 in data set [1] (setting [4]) is below 100 nM. In data set [2], the “Human Microsome % Remaining” value is given as above 80%.
Consider `CC(C)(O)c1cn(-c2ccc(-c3cc(F)c(CO)c(S(C)(=O)=O)c3)cc2Cl)c(C(C)(C)c2c(Cl)cccc2Cl)n1` [Example 3, 2-(1-(3-chloro-3′-fluoro-4′-(hydroxymethyl)-5′-(methylsulfonyl)biphenyl-4-yl)-2-(2-(2,6-dichlorophenyl)propan-2-yl)-1H-imidazol-4-yl)propan-2-ol], for which the Emax in data set [1] (setting [3]) was 16%. In addition, the EC50 in data set [1] (setting [4]) was below 100 nM. Further, the “Human Microsome % Remaining” value in data set [2] is reported as above 80%.
The corresponding values for `CC(C)(O)c1cn(-c2ccc(-c3cc(F)c(CO)c(S(C)(=O)=O)c3)cc2)c(C(C)(C)c2c(Cl)cccc2Cl)n1` [Example 5, 2-(2-(2-(2,6-dichlorophenyl)propan-2-yl)-1-(3′-fluoro-4′-(hydroxymethyl)-5′-(methylsulfonyl)biphenyl-4-yl)-1H-imidazol-4-yl)propan-2-ol] are 43%, below 100 nM and above 80%.
The corresponding values for `CC(C)(O)c1cn(-c2ccc(-c3cc(F)c(CO)c(S(C)(=O)=O)c3)cc2)c(Cc2c(Cl)cccc2Cl)n1` [Example 18, 2-(2-(2,6-dichlorobenzyl)-1-(3′-fluoro-4′-(hydroxymethyl)-5′-(methylsulfonyl)biphenyl-4-yl)-1H-imidazol-4-yl)propan-2-ol] are 51%, below 100 nM and above 80%.
On the same counts, the results for `Cc1cc(-c2cc(F)c(CO)c(S(C)(=O)=O)c2)ccc1-n1cc(C(C)(C)O)nc1C(C)(C)c1c(F)cccc1Cl` [Example 2, 2-(2-(2-(2-chloro-6-fluorophenyl)propan-2-yl)-1-(3′-fluoro-4′-(hydroxymethyl)-3-methyl-5′-(methylsulfonyl)biphenyl-4-yl)-1H-imidazol-4-yl)propan-2-ol] are 18%, below 100 nM and above 80%.
For `CC(C)(O)c1cn(-c2ccc(-c3cc(F)c(CO)c(S(C)(=O)=O)c3)cc2F)c(C(C)(C)c2ccccc2F)n1` [Example 8, 2-{1-(3,3′-Difluoro-4′-hydroxymethyl-5′-methanesulfonyl-biphenyl-4-yl)-2-[2-(2-fluorophenyl)propan-2-yl]-1H-imidazol-4-yl}-propan-2-ol], the Emax in data set [1] (setting [3]) came out at 23%. Moreover, the EC50 in data set [1] (setting [4]) was below 100 nM. For the same compound, the “Human Microsome % Remaining” value in data set [2] was above 80%.
Consider `CC(C)(O)c1cn(-c2ccc(-c3cc(F)c(CO)c(S(C)(=O)=O)c3)cc2)c(Cc2ccc(Cl)cc2Cl)n1` [Example 15, 2-(2-(2,4-dichlorobenzyl)-1-(3′-fluoro-4′-(hydroxymethyl)-5′-(methylsulfonyl)biphenyl-4-yl)-1H-imidazol-4-yl)propan-2-ol], for which the Emax in data set [1] (setting [3]) turned out to be 47%. In addition, the EC50 in data set [1] (setting [4]) is below 100 nM. Further, the “Human Microsome % Remaining” value in data set [2] is reported as above 80%.
On to `CC(C)(O)c1cn(-c2ccc(-c3cc(F)c(CO)c(S(C)(=O)=O)c3)cc2Cl)c(Cc2ccc(F)cc2Cl)n1` [Example 13, 2-(1-(3-chloro-3′-fluoro-4′-(hydroxymethyl)-5′-(methylsulfonyl)biphenyl-4-yl)-2-(2-chloro-4-fluorobenzyl)-1H-imidazol-4-yl)propan-2-ol], for which the Emax in data set [1] (setting [3]) turned out to be 50%. The half-maximal effective concentration (EC50) in data set [1] (setting [4]) is below 100 nM. Further, the “Human Microsome % Remaining” value in data set [2] is given as above 80%.
`CC(C)(O)c1cn(-c2ccc(-c3cc(F)c(CO)c(S(C)(=O)=O)c3)cc2F)c(C(C)(C)c2c(F)cccc2Cl)n1` [Example 7, 2-(2-(2-(2-chloro-6-fluorophenyl)propan-2-yl)-1-(3,3′-difluoro-4′-(hydroxymethyl)-5′-(methylsulfonyl)biphenyl-4-yl)-1H-imidazol-4-yl)propan-2-ol]: the Emax in data set [1] (setting [3]) was 33%. Further, the EC50 in data set [1] (setting [4]) is below 100 nM. For the same compound, the “Human Microsome % Remaining” value in data set [2] is given as above 80%.
